{
  "source": "patent US11779620B2",
  "about": "(priority 2020, dated 2023)",
  "key": {"human PBMC cultures [1]": {"tested_on": "human PBMC cultures", "assay": "Cytokine, chemokine and growth factor levels in PBMC culture supernatants (medicinal mushroom blend study)", "format": "cell-based", "conditions": "LPS-treated control cultures (10 ng/mL), 24 h, mean±SD", "procedure": "The powder was handled in the following manner, using pyrogen-free disposables: A 100 mg/mL suspension was prepared in phosphate-buffered saline (PBS) and allowed to rehydrate and extract aqueous compounds for 1 hour at 20° C. under gentle agitation. The suspension was centrifuged at 400 g for 10 minutes, and the aqueous fraction harvested. Ethanol (95%) was added to the pellet and vortexed, and extraction of non-aqueous, ethanol-soluble compounds allowed for 1 hour at 20° C. under gentle agitation. The suspension was centrifuged at 400 g for 10 minutes, and the ethanol fraction harvested. The remaining solid pellet was resuspended in PBS. The aqueous and ethanol fractions were filtered through a 0.22-micron syringe filter before adding to cell cultures. The solid fraction was passed through homogenization spin columns (QIAshredder, Qiagen, […].), but were not filtered through a 0.22-micron filter. From each fraction, serial dilutions were made in pyrogen-free physiological saline. See also FIG. 9.\nPeripheral venous blood was drawn from three healthy human donors upon written informed consent, as approval by the Sky Lakes Medical Center Institutional Review Board, Federalwide Assurance 2603. The blood was drawn into heparin vacutainer vials, and the peripheral blood mononuclear cells (PBMC) isolated using Lympholyte Poly by centrifugation for 35 minutes at 400×g. The PBMC were washed twice in PBS, counted, and the density adjusted to establish cultures with a cell density of 10^6/mL, using Roswell Park Memorial Institute (RPMI) 1640 medium containing penicillin, streptomycin, and fetal bovine serum.\nThe highly inflammatory lipopolysaccharide (LPS) from Salmonella enterica was used as a positive control for immune-cell activation. Serial dilutions of products or LPS (10 ng/mL) were added to cultures at a volume of 20 μL, and cultures were then incubated at 37° C., 5% CO2 for 24 hours. […] Untreated negative control cultures consisted of PBMC exposed to phosphate-buffered saline in the absence of test products. All treatments, including each dose of test product and each positive and negative control, were tested in triplicate. After 24 hours, cells were transferred to V-bottom microtiter plates, washed in PBS containing bovine serum albumin and sodium azide, and stained for 10 minutes with fluorochrome-labeled anti-CD3, anti-CD56, and anti-CD69 monoclonal antibodies at the recommended concentration. PBMC were then fixed in formalin. The fluorescence intensities for CD3, CD56, and CD69 were measured by flow cytometry, using an Attune acoustic-focusing flow cytometer (Thermo Fisher Scientific, Waltham, Mass., USA). Data analysis utilized gating on forward and side scatter to evaluate CD69 expression on lymphocyte versus monocyte/macrophage subsets. The lymphocyte subpopulation was further analyzed for CD69 expression on CD3−CD56+ NK cells, CD3+CD56+ NKT cells, CD3+CD56− T cells, and non-NK non-T lymphocytes.\nAfter 24 hours of incubation, after transfer to V-bottom microtiter plates and before cells were stained for flow cytometry analysis, the culture supernatants were harvested from the PBMC cultures described above. Levels of cytokines, chemokines, and growth factors were quantified using Bio-Plex protein arrays (Bio-Rad Laboratories Inc., Hercules Calif., USA) and utilizing xMAP technology (Luminex, Austin, Tex., USA)."}, "human PBMC cultures [2]": {"tested_on": "human PBMC cultures", "assay": "Induction of CD69 activation marker on immune cell subsets in PBMC cultures (Trametes versicolor study)", "format": "cell-based", "conditions": "24 h, positive controls LPS 10 ng/mL, IL-2 100 IU/mL, mean±SD"}},
  "data": [
    {"substance": "lipopolysaccharide [LPS]", "values": [
      {"measurement": "G-CSF level", "setting": "human PBMC cultures [1]", "value": "1,458±58 pg/mL"},
      {"measurement": "IFN-γ level", "setting": "human PBMC cultures [1]", "value": "71 ± 2", "unit": "pg/mL"},
      {"measurement": "IL-1ra level", "setting": "human PBMC cultures [1]", "value": "8,134±473 pg/mL"},
      {"measurement": "IL-1β level", "setting": "human PBMC cultures [1]", "value": "772 ± 28", "unit": "pg/mL"},
      {"measurement": "IL-10 level", "setting": "human PBMC cultures [1]", "value": "301 ± 15", "unit": "pg/mL"},
      {"measurement": "MCP-1 level", "setting": "human PBMC cultures [1]", "value": "2,052±35 pg/mL"},
      {"measurement": "MIP-1α level", "setting": "human PBMC cultures [1]", "value": "2,116±0 pg/mL"},
      {"measurement": "MIP-1β level", "setting": "human PBMC cultures [1]", "value": "6,497±814 pg/mL"},
      {"measurement": "TNF-α level", "setting": "human PBMC cultures [1]", "value": "7,073±185 pg/mL"},
      {"measurement": "VEGF level", "setting": "human PBMC cultures [1]", "value": "421 ± 17", "unit": "pg/mL"},
      {"measurement": "bFGF level", "setting": "human PBMC cultures [1]", "value": "221 ± 8", "unit": "pg/mL"},
      {"measurement": "CD69 percent change compared to untreated control cultures, NK cells", "setting": "human PBMC cultures [2]", "value": "114±10", "unit": "%"},
      {"measurement": "CD69 percent change compared to untreated control cultures, NKT cells", "setting": "human PBMC cultures [2]", "value": "54±8.3", "unit": "%"},
      {"measurement": "CD69 percent change compared to untreated control cultures, T lymphocytes", "setting": "human PBMC cultures [2]", "value": "19±2.1", "unit": "%"}
    ]}
  ]
}
